How the values were obtained:
Test in all cases: relative viability (nuclei count vs DMSO), 5 days (fraction); higher = more cells survive
Vorinostat + AZD7762 = compound: O=C(CCCCCCC(=O)Nc1ccccc1)NO [Vorinostat] + NC(=O)Nc1cc(-c2cccc(F)c2)sc1C(=O)N[C@H]1CCCNC1 [AZD7762] (partner 0.2 µM)
Summary of the method: (§1)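 A single step with final 0.05% Triton X-100, 1% formaldehyde and 1 ug/ml Hoechst fixed the cells and stained nuclei 5 days after treatment. Lung cancer cell lines in 1536-well plates had been treated by pin tool the day after seeding with one drug alone or a fixed anchor-drug dose plus five library-drug doses (not always all listed) in √10 steps, and nuclei were counted on 4× images. Relative viability is the ratio of nuclei in treated wells to nuclei in vehicle wells, taken as the median of duplicate plates.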

Vorinostat + Trametinib = compound: O=C(CCCCCCC(=O)Nc1ccccc1)NO [Vorinostat] + CC(=O)Nc1cccc(-n2c(=O)n(C3CC3)c(=O)c3c(Nc4ccc(I)cc4F)n(C)c(=O)c(C)c32)c1 [Trametinib] (partner 0.02 µM)
Summary of the method: as §1

Vorinostat + Pemetrexed = compound: O=C(CCCCCCC(=O)Nc1ccccc1)NO [Vorinostat] + Nc1nc2[nH]cc(CCc3ccc(C(=O)N[C@@H](CCC(=O)O)C(=O)O)cc3)c2c(=O)[nH]1 [Pemetrexed] (partner 0.2 µM)
Summary of the method: as §1

Vorinostat + Pictilisib = compound: O=C(CCCCCCC(=O)Nc1ccccc1)NO [Vorinostat] + CS(=O)(=O)N1CCN(Cc2cc3nc(-c4cccc5[nH]ncc45)nc(N4CCOCC4)c3s2)CC1 [Pictilisib] (partner 1 µM)
Summary of the method: as §1

Vorinostat + Phenformin = compound: O=C(CCCCCCC(=O)Nc1ccccc1)NO [Vorinostat] + N=C(N)NC(=N)NCCc1ccccc1 [Phenformin] (partner 250 µM)
Summary of the method: as §1

Cell Line	relative viability (Vorinostat + AZD7762; first compound 0.253 µM)	relative viability (Vorinostat + AZD7762; first compound 0.8 µM)	relative viability (Vorinostat + AZD7762; first compound 2.53 µM)	relative viability (Vorinostat + AZD7762; first compound 8 µM)	relative viability (Vorinostat + Trametinib; first compound 0.253 µM)	relative viability (Vorinostat + Trametinib; first compound 0.8 µM)	relative viability (Vorinostat + Trametinib; first compound 2.53 µM)	relative viability (Vorinostat + Trametinib; first compound 8 µM)	relative viability (Vorinostat + Pemetrexed; first compound 0.253 µM)	relative viability (Vorinostat + Pemetrexed; first compound 0.8 µM)	relative viability (Vorinostat + Pemetrexed; first compound 2.53 µM)	relative viability (Vorinostat + Pemetrexed; first compound 8 µM)	relative viability (Vorinostat + Pictilisib; first compound 0.253 µM)	relative viability (Vorinostat + Pictilisib; first compound 0.8 µM)	relative viability (Vorinostat + Pictilisib; first compound 2.53 µM)	relative viability (Vorinostat + Pictilisib; first compound 8 µM)	relative viability (Vorinostat + Phenformin; first compound 0.253 µM)	relative viability (Vorinostat + Phenformin; first compound 0.8 µM)	relative viability (Vorinostat + Phenformin; first compound 2.53 µM)	relative viability (Vorinostat + Phenformin; first compound 8 µM)
NCI-H2170	1.23	0.923	0.332	0.106	0.926	0.921	0.578	0.108	0.249	0.242	0.222	0.114	0.348	0.235	0.209	0.185	0.481	0.394	0.384	0.164
HARA	0.2	0.245	0.146	0.125	1.06	0.576	0.18	0.0921	0.239	0.217	0.205	0.125	0.483	0.447	0.132	0.102	0.443	0.364	0.231	0.0679
NCI-H1792	0.568	0.29	0.0683	0.0252	0.292	0.257	0.145	0.0464	0.795	0.524	0.163	0.0208	0.283	0.179	0.0803	0.0579	0.269	0.228	0.0757	0.0593
LU99A	0.279	0.198	0.15	0.0946	0.614	0.54	0.33	0.138	0.14	0.182	0.162	0.112	0.264	0.278	0.154	0.141	0.952	0.609	0.447	0.185
LXF-289	1.14	1.09	0.344	0.0727	0.709	0.639	0.424	0.0759	0.905	0.794	0.554	0.0613	0.913	0.704	0.272	0.088	0.595	0.558	0.306	0.0606
CAL-12T	0.639	0.603	0.337	0.162	0.433	0.499	0.223	0.0898	1.36	1.31	1.08	0.126	0.48	0.435	0.209	0.149	0.685	0.562	0.312	0.0876
NCI-H2087	1.35	1.04	0.498	0.102	0.202	0.158	0.141	0.087	0.637	0.617	0.347	0.132	1.32	0.634	0.275	0.133	0.449	0.331	0.0993	0.0935
NCI-H647	0.406	0.333	0.0641	0.0356	0.642	0.497	0.164	0.0479	0.226	0.138	0.0722	0.0562	0.454	0.526	0.153	0.0703	0.594	0.208	0.0803	0.0343
NCI-H1915	0.692	0.673	0.377	0.102	0.36	0.291	0.227	0.101	0.531	0.494	0.371	0.102	1.17	0.751	0.426	0.0969	0.38	0.341	0.181	0.0949
HCC-15	1.39	1.11	1.06	0.363	0.377	0.338	0.147	0.0834	0.219	0.216	0.172	0.099	0.811	0.608	0.472	0.108	0.609	0.473	0.22	0.0895
NCI-H1666	0.778	0.826	0.461	0.322	0.894	0.805	0.561	0.439	0.849	0.887	0.651	0.434	0.363	0.283	0.206	0.128	0.591	0.474	0.398	0.306
PC-14	0.33	0.288	0.106	0.0453	0.785	0.483	0.155	0.0461	0.162	0.177	0.14	0.0507	0.959	0.438	0.0673	0.0418	0.713	0.561	0.131	0.0278
NCI-H1793	0.188	0.492	0.204	0.131	0.383	0.34	0.3	0.182	1.26	0.869	0.654	0.175	0.479	0.355	0.286	0.174	0.467	0.415	0.516	0.279
RERF-LC-KJ	1.06	0.977	0.379	0.211	0.897	0.732	0.308	0.201	0.472	0.39	0.333	0.212	0.562	0.474	0.182	0.164	0.453	0.394	0.284	0.288
201T	0.527	0.595	0.495	0.197	0.734	0.735	0.69	0.267	0.327	0.323	0.253	0.25	0.741	0.605	0.522	0.313	0.478	0.446	0.406	0.236

From the supplement of paper PMC10307832
